Key:
p53AIP1 [1] = assay: Immunocytochemical staining of endogenous p53AIP1 in mitochondria; type: cell-based, human; settings: MCF7; STS 0.5 μM 24 hr, TNFα 10 ng/ml 48 hr
Source text: (§1) FIG. 17 presents photographs showing the expression of p53AIP1 protein in the mitochondria, and the function of p53AIP1 protein in apoptosis induced by UV or STS. […] Twenty-four hours after STS and UV damage or 48 hr after TNFα damage, p53AIP1 protein and mitochondria in the cells were stained with FITC-conjugated rabbit anti-p53AIP1 antibody and Mito Tracker Red (CMXRos), respectively. The nuclei was visualized by DAPI staining. […] MCF7 cells were transfected with AS or sense oligonucleotides (SE) (1 μM) using Lipofectin reagent (GIBCO-BRL) for 4 hr, and then the cells were damaged by UV irradiation (50 J/m^2). Thirty-six hours after transfection, p53AIP1 expression was evaluated by Western blotting.
Incubation times and radiation doses were as follows: for RT-PCR, STS treatment was performed for 24 hr and TNFα and UV, for 48 hr; for Western blotting, STS, for 36 hr and TNFα and UV, for 48 hr; for FACS and TUNEL assays, STS (0.5 μM) and UV (50 J/m^2) for 36 hr and TNFα (10 ng/ml), for 72 hr; and for immunocytochemical analysis, STS (0.5 μM) and UV (50 J/m^2), for 24 hr and TNFα (10 ng/ml) for 48 hr.

p53AIP1 [2] = assay: Antisense inhibition of p53AIP1 expression in MCF7 (Western blotting); type: cell-based, human; settings: MCF7, AS 1 μM, after UV irradiation, compared with sense oligonucleotide
Source text: as §1
(§2) Next, the intracellular localization of endogenous p53AIP1 during apoptosis through different-pathways was identified. In human breast carcinoma cells MCF7 that were not exposed to any apoptosis stimulator, the expression of p53AIP1 was not detected. […] No staining of p53AIP1 was observed after TNFα treatment (FIG. 17). To confirm the involvement of p53AIP1 in apoptotic processes, experiments using an antisense oligonucleotide (AS) corresponding to the p53AIP1 gene were performed. […] After 36 hr from the treatment, apoptotic cells were analyzed by FACS and TUNEL analysis.

MCF7 cells = assay: Antisense effect on apoptosis in MCF7 (FACS sub-G1); type: cell-based, human; settings: MCF7, AS 1 μM
Experimental: MCF7 cells were transfected with AS or SE (1 μM) using Lipofectin reagent (GIBCO-BRL) for 4 hr, and treated with UV irradiation, STS or TNFα.
Cells were plated 24 hr before apoptosis-inducing treatment, and grown to 60%-70% confluency at the time of treatment. To test whether the expression of p53AIP1 in response to apoptotic stresses, MCF7 (breast carcinoma) cells were continuously incubated with staurosporine or TNFα, or were treated with UV at given dosages (J/m^2) using a UV cross-linker (Stratagene). Floating and adherent cells were collected, and subjected to analyses by Western blotting, FACS, and RT-PCR analysis. For FACS analysis, adherent and detached cells were combined and fixed with 75% ethanol at 4° C. After rinsed twice with PBS, cells were incubated at 37° C. for 30 min with 1 ml PBS containing boiled RNase. Cells were then stained in 1 ml PBS containing 10 μg of propidium iodide. The cells (2×10^4 or more) were analyzed in a flow cytometer (FACScalibur; Becton Dickinson) to determine the percentage of sub-G1 nuclei in the cell population. In situ terminal transferase-mediated dUTP nick end-labeling (TUNEL) was performed using Apoptag Direct (Oncor) according to the manufacturer's instructions.
as §2, with “performed. To inhibit endogenous p53AIP1 expression, antisense oligonucleotide (AS2: […]/SEQ ID NO: 30) and a control sense oligonucleotides (SE2: […]/SEQ ID NO: 31) were designed based on the sequence of the p53AIP1 gene, and then purified by HPLC.” for “performed.”

p53AIP1 [3] = assay: p53AIP1 expression after apoptosis stimulators (Western blotting, RT-PCR); type: cell-based, human; settings: MCF7 cells
Experimental: FIG. 15 presents photographs showing the expression of p53AIP1 through different apoptotic pathways, which was detected by Western blotting (A) and semiquantitative RT-PCR (B) analyses. MCF7 cells were collected at 36 hr after STS damage and 48 hr after UV or TNFα damage for Western blotting analysis, or 24 hr after STS damage, and 48 hr after UV or TNFα damage for RT-PCR. Expression of β-actin or β2MG serves as a control.
Cells were plated 24 hr before apoptosis-inducing treatment, and grown to 60%-70% confluency at the time of treatment. To test whether the expression of p53AIP1 in response to apoptotic stresses, MCF7 (breast carcinoma) cells were continuously incubated with staurosporine or TNFα, or were treated with UV at given dosages (J/m^2) using a UV cross-linker (Stratagene). […] The cells (2×10^4 or more) were analyzed in a flow cytometer (FACScalibur; Becton Dickinson) to determine the percentage of sub-G1 nuclei in the cell population. […]
For RT-PCR analysis, total RNA was first isolated from cells using the RNeasy spin column kit (QIAGEN) according to the manufacturer's instructions. cDNAs were synthesized from 5 μg of total RNA using SuperScript Pre-amplification System (GIBCO-BRL). The exponential phase was determined for RT-PCR within 15 cycles to 30 cycles to allow semiquantitative comparisons among cDNAs derived from identical reactants. […]

mitochondrial ΔΨm [4] = assay: Mitochondrial ΔΨm by Rhodamine 123 in HeLa mock parental cells; type: cell-based, human; settings: MOI 100 pfu/cell, 60 hr after infection
Experimental: (§3) The cells were labeled with Rhodamine 123 at 60 hr after infection, and fluorescence was analyzed by FACScan. The horizontal axis indicates 10^0 at left end, 10^4 at right end, and 10^2 at center, respectively.
(§4) Next, the mitochondrial ΔΨm itself was analyzed. Detection of mitochondrial membrane potential was performed as follows. […] Sixty hours after infection, adherent and floating cells were collected by trypisinization, and washed twice with cold PBS. Rhodamine 123 (10 nM) in PBS was added to the cells, and were incubated for 30 min at 37° C. Fluorescence was measured by flow cytometry.

p53AIP1 [5] = assay: Antisense inhibition of p53AIP1 expression (RT-PCR); type: cell-based, human; settings: U373MG, 1 μM oligonucleotide 4 hr, then Ad-p53, 48 hr
U373MG cells = assay: Antisense inhibition of p53-induced apoptosis (FACS); type: cell-based, human; settings: 1 μM oligonucleotide 4 hr, then Ad-p53, 48 hr
p53AIP1 [6] = assay: Induction of endogenous p53AIP1 by DNA damage in NHDF (RT-PCR); type: cell-based, human; settings: adriamycin 0.2 μg/ml
Experimental: (§5) Expression of the GAPDH gene was determined as a quantity control. p53AIP1 and p21/WAF1 expression induced by γ irradiation (IR) and adriamycin treatment (ADR) is analyzed.
(§6) DNA-damaging treatment was performed as follows.
(§7) Cells were inoculated 24 hr before treatment, and grown to 60% to 70% confluency. NHDF and SW480 cells were continuously treated with adriamycin (doxorubicin) at a concentration of 0.2 μg/ml or were treated with γ-ray irradiation at about 1 Gy/min (14 Gy).

p21^Waf1 = assay: Induction of p21Waf1 by DNA damage in NHDF (RT-PCR); type: cell-based, human; settings: adriamycin 0.2 μg/ml
Experimental: as §5, §6, §7

T98G cells = assay: TUNEL analysis after transfection of expression vectors; type: cell-based, human; settings: harvested 48 hr after transfection
Experimental: To investigate whether introduction of exogenous p53AIP1 could indeed induce apoptotic cell death, in situ terminal transferase-mediated dUTP nick end-labeling (TUNEL) analysis was performed. […] TUNEL analysis was performed using Apotag Direct ([…]) according to the manufacturer's instructions. […] DNA fragments were evaluated using the ApoAlert LM-PCR ladder assay kit (Clontech) according to the manufacturer's instructions.

mitochondrial ΔΨm [7] = assay: Mitochondrial membrane potential by Mitotracker Red CMXRos; type: cell-based; settings: 24 hr after transfection
Experimental: To evaluate the mitochondrial membrane potential, cells were incubated in culture media containing […] Mitotracker Red CMXRos (Molecular Probes) at 37° C. for 30 min, and then fixed to be labeled with a longer wavelength (579 nm to 599 nm) fluorescence emission.

mitochondrial ΔΨm [8] = assay: Mitochondrial ΔΨm by Rhodamine 123 in HeLa cells overexpressing bcl-2; type: cell-based, human; settings: both HeLa cell lines overexpressing bcl-2, 60 hr after infection
Experimental: as §3, §4

WTp53 cancer cell lines = assay: Anti-tumor effect in vitro, nine cancer cell lines containing wild-type p53; type: cell-based, human
Experimental: Apoptotic cells were analyzed by FACScan at 96 hr after infection.

TNFα
staining of p53AIP1 in the mitochondria (p53AIP1 [1]): No staining

TCCCCTGGATGGGATC (chemistry not given here) [AS2]
reduction in the p53AIP1 expression level (p53AIP1 [2]): 50% | inhibition of cell death induced by TNFα (MCF7 cells; TNFα 10 ng/ml): did not inhibit | apoptotic (sub-G1) cell population, second pair (MCF7 cells; reduced from 33%, after UV irradiation): 16% | apoptotic (sub-G1) cell population, first pair (MCF7 cells; reduced from 37%, stimulus not clearly printed): 28%

CN[C@@H]1C[C@H]2O[C@@](C)([C@@H]1OC)n1c3ccccc3c3c4c(c5c6ccccc6n2c5c31)C(=O)NC4 [STS, staurosporine]
expression of p53AIP1 during apoptotic induction (p53AIP1 [3]): increased significantly in a dose-dependent manner | staining of p53AIP1 in the mitochondria (p53AIP1 [1]): intense staining

LacZ: exogenous LacZ expressed from Ad-LacZ, control [reference compound]
down-regulation of mitochondrial ΔΨm (mitochondrial ΔΨm [4]): did not

GATCCCATCCAGGGGA (listed as DNA, chemistry not given here) [AS1]
inhibition of the induction of p53AIP1 expression (p53AIP1 [5]): significantly inhibited | inhibition of the induction of p53-induced apoptosis (U373MG cells): significantly inhibited

COc1cccc2c1C(=O)c1c(O)c3c(c(O)c1C2=O)C[C@@](O)(C(=O)CO)C[C@@H]3O[C@H]1C[C@H](N)[C@H](O)[C@H](C)O1 [adriamycin, adriamycin (doxorubicin)]
time of maximum levels of p53AIP1 (p53AIP1 [6]): 24 h | time of maximum p21^Waf1 expression (p21^Waf1): 6 h

GGAGGCAGGTGAGGAG (listed as DNA, chemistry not given here) [SE1, reference compound]
inhibition of the induction of p53AIP1 expression (p53AIP1 [5]): not | inhibition of the induction of p53-induced apoptosis (U373MG cells): not

B1: p53AIP1α: p53-dependent apoptosis-associated protein, 124 amino acids, SEQ ID NO: 2, expressed from vector (protein, listed as Homo sapiens)
chain: MGSSSEASFRSAQASCSGARRQGLGRGDQNLSVMPPNGRAQTHTPGWVSDPLVLGAQVHGGCRGIEALSVSSGSWSSATVWILTGLGLGLSRPFLPGATVLRDRPLGSAFELSYDQKKAPLRLQ
transfected T98G cells undergoing apoptosis (TUNEL) (T98G cells): more than half | dissipation of mitochondrial ΔΨm (mitochondrial ΔΨm [7]): Almost all cells | down-regulation of mitochondrial ΔΨm (mitochondrial ΔΨm [4]): down-regulated | down-regulation of mitochondrial ΔΨm with bcl-2 overexpression (mitochondrial ΔΨm [8]): blocked

B2: p53AIP1: p53-regulated Apoptosis Inducing Protein 1, exogenous expression by adenovirus-mediated gene transfer (protein)
chain: B1 chain
modifications: left off: small tags and cut ends
notes: p53-regulated Apoptosis Inducing Protein 1, exogenous expression by adenovirus-mediated gene transfer
induction of apoptosis in WTp53 cancer cell lines (WTp53 cancer cell lines; nine lines tested, adenovirus-mediated gene transfer, 96 hr): effectively induced apoptosis in six of the WTp53 cancer cell lines | cell killing compared with p53 (WTp53 cancer cell lines; the six responsive WTp53 lines): four of the six cell lines were killed more effectively

Source: patent publication US7569351B2 (Oncotherapy Science, Inc., priority 2000, dated 2009)
